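Cultured in 96-well plates, cells were exposed to test compound for 48 hours across five concentrations. Abbreviation: GI50, concentration required for 50% inhibition of growth. TGI marks complete inhibition of growth.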
How the values were obtained:
Test in all cases: NCI-60 cell line screen, 48 h
[1] = tested on: CCRF-CEM leukemia
[2] = tested on: A549 NSCLC
[3] = tested on: SK-MEL-2 melanoma
[4] = tested on: SK-MEL-5 melanoma
[5] = tested on: UACC-257 melanoma
[6] = tested on: HCC-2998 colon
[7] = tested on: HOP-92 NSCLC
[8] = tested on: IGROV1 ovarian
[9] = tested on: HL-60(TB) leukemia
[10] = tested on: UO-31 renal

Compound	TGI [1] [µM]	TGI [2] [µM]	TGI [3] [µM]	TGI [4] [µM]	TGI [5] [µM]	TGI [6] [µM]	TGI [7] [µM]	TGI [8] [µM]	TGI [9] [µM]	GI50 [2] [µM]	GI50 [3] [µM]	GI50 [4] [µM]	GI50 [10] [µM]	TGI [10] [µM]	GI50 [5] [µM]	GI50 [6] [nM]	GI50 [7] [nM]	GI50 [8] [µM]	GI50 [9] [µM]	GI50 [1] [nM]
COC(=O)N/N=C(\Cc1ccccc1)CN(C)C	> 100	> 100	> 100	> 100	> 100	> 100	> 100	> 100	> 100											
CC(C)(C)n1cc(-c2ccnc(NCCCNS(=O)(=O)c3ccc(C(F)(F)F)cc3)c2)c(-c2cccc(O)c2)n1		4.58	3.95	2.97	4.6	3.25	3.31	3.55	7.74	2.02	2.1	1.6	1.58	3.06	2.07	1820	1600	1.8	2.81	
CCS(CC)(CC)CC1CCCC2=CCC(P(=O)(c3ccccc3)c3ccccc3)CC21 (configuration not stated)	31	18	33.8	29.8		22	16.4	28.1	12.3					20.3						
O=C1c2ccccc2C(O)(O)C1(O)C1(O)C(=O)c2ccccc2C1(O)O (configuration not stated)	44.7	> 100	> 100	39.4			> 100	> 100	53.2					48.7						
COc1cc(OC(=O)c2ccccc2)cc2c1C(=O)C=CC2=O	5.63	68.4	40.4	30.6	31.6		5.05	29	3.04					22.8						
COC1CC(OS(=O)(=O)c2ccc([N+](=O)[O-])cc2)C(OC(=O)c2ccccc2)C(C)O1 (configuration not stated)	> 100	> 100		> 100	> 100	> 100	> 100	> 100	> 100											
Cc1ccc(S(=O)(=O)OC2CSS(=O)CC2OS(=O)(=O)c2ccc(C)cc2)cc1 (configuration not stated)		37.9		30.1	28.2	30.9	25.9	32.9	28.3					33						
COc1cc(C(=O)O[C@H](C(=O)NCCCCCNC(=O)[C@@H](OC(=O)c2cc(OC)cc3c(C)cccc23)[C@]2(C)CO2)[C@]2(C)CO2)c2cccc(C)c2c1		10.2		0.501	5.33	3.55	0.867	> 100		0.447	0.2	0.166	2.24	> 100	2.03	254	292	1.43		
O=C(O)C(/C=C/c1ccccc1)c1ccccc1 (configuration not stated)	> 100	> 100	> 100	> 100	> 100		> 100	> 100	75.1					> 100						
CC(C)N(Cc1ccccc1)c1c(S)ssc1=S	6.66	12.9	31.1	2.82	6.2	74	3.79		3.12	2.41	3.53	0.605	3.6	70.6	1.54	4360	342		1.16	849
COc1cc2c(cc1C)NC(=O)/C2=C/c1ccccn1	> 100	> 100	> 100	27.3	> 100		89.4	> 100	> 100	4.11	> 100	4.49	12.2	> 100	13.1		2900	9.6	5.35	782
COc1cc([N+](=O)[O-])c(OC)cc1-c1nc2sc(Cl)cn2c1/C(N)=N/C(=N)N		> 53		29.5	22.6	4.15	24	> 54.6		18.4		4.52	26.2	> 61.8	8	1990	7060	5.18		
Oc1c(C(Nc2cccc3cccnc23)c2ccccc2)ccc2cccnc12 (configuration not stated)	78.8	> 100			35.9	> 100		39.9	7.58					> 100						
Fc1ccc2c(c1)C1=NN(c3ccccc3)C(F)C1CO2 (configuration not stated)		23.9	> 50	16.2	26.5		23.7	> 50	> 50	7.96	19.4	8.48	13.3	> 50	9.7		9550	15.2	17.9	
COc1cc2ccc(/C=C\[N+](=O)[O-])cc2cc1OC		29.8	9.43	17.5	> 22.9	13.6	10.1	3.92	5.07					3.36						
C(#Cc1ccccc1C#Cc1cccs1)c1cccs1	> 100	> 100	> 100	> 100	> 100	65.2		> 100		89.9	41.7	23.6	35.8	> 100	> 100	24000		> 100		31900
CN(CCCn1c2c(c3ccccc3c1=O)C(=O)c1ccccc1-2)CCCn1c2c(c3ccccc3c1=O)C(=O)c1ccccc1-2		4.21	> 51.8	> 100	> 73.2	9.46	1.9		12.6	1.13	27.6	6.57	1.42	6.26	21.6	385	67.1		3.65	

— PubChem BioAssay (NCI)
